We go through one compound from patent US9522883B2, “Glycosidase inhibitors and uses thereof” (Alectos Therapeutics Inc., priority 2012, dated 2016).

For this assay, the target named is human O-GlcNAcase (Homo sapiens (Human), UniProt O60502). The assay is described as follows: Assay for determination of KI values for inhibition of O-GlcNAcase activity (fluorescence-based hOGA). It is filed as biochemical. The conditions noted are these: purified human O-GlcNAcase, 4-Methylumbelliferyl N-acetyl-β-D-glucosaminide substrate, pH 7.0, Cheng-Prusoff. Here is the method: Enzymatic reactions were carried out in a reaction containing 50 mM NaH2PO4, 100 mM NaCl and 0.1% BSA (pH 7.0) using 2 mM 4-Methylumbelliferyl N-acetyl-β-D-glucosaminide dihydrate (Sigma M2133) dissolved in ddH2O, as a substrate. The amount of purified human O-GlcNAcase enzyme used in the reaction was 0.7 nM. Test compound of varying concentrations was added to the enzyme prior to initiation of the reaction. The reaction was performed at room temperature in a 96-well plate and was initiated with the addition of substrate. The production of fluorescent product was measured every 60 sec for 45 min with a Tecan Infinite M200 plate-reader with excitation at 355 nm and emission detected at […], with 4-Methylumbelliferone (Sigma M1381) used to produce a standard curve. The slope of product production was determined for each concentration of compound tested and plotted, using standard curve fitting algorithms for sigmoidal dose response curves. The values for a four parameter logistic curve fit of the data were determined.
KI values were determined using the Cheng-Prusoff equation; the Km of O-GlcNAcase for substrate was 0.2 mM.

Chain of human O-GlcNAcase (O60502 whole entry): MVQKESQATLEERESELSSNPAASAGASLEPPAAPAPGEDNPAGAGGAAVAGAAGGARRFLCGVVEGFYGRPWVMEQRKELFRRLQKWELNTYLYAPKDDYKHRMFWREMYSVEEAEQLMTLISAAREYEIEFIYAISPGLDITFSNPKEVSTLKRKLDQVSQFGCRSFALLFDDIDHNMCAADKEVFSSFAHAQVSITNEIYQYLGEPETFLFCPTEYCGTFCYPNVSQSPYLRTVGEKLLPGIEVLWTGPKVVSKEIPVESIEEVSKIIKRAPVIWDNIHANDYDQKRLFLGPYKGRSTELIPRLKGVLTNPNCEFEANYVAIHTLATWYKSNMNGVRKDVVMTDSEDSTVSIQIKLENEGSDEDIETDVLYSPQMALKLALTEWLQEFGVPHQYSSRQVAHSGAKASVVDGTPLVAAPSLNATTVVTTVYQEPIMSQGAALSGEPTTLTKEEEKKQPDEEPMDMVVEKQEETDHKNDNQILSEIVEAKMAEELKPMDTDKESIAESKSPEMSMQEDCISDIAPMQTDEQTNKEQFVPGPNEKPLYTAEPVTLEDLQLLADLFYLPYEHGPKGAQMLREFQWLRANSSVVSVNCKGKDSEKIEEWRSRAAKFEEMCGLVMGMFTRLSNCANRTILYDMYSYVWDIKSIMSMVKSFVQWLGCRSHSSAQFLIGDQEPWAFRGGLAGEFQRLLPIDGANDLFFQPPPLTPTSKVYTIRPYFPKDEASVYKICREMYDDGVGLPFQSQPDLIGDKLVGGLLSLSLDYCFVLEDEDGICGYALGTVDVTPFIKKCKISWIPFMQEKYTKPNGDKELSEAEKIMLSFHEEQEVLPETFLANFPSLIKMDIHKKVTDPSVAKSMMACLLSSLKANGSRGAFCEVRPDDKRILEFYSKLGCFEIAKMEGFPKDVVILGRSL

As for `CC(=O)N[C@H]1CN(CCCCc2ccccc2)[C@H](CO)[C@@H](O)[C@@H]1O` [Example 1, N-((3S,4R,5R,6R)-4,5-dihydroxy-6-(hydroxymethyl)-1-(4-phenylbutyl)piperidin-3-yl)acetamide], the inhibition constant (Ki) (in general, the dissociation constant of the complex between target and ligand, obtained from inhibition or displacement) was 2.58 µM.
